Reference: PubChem BioAssay AID330 (DTP/NCI, 2004)
“And” between values parts separate entries of the source, which are not always exact repeats. Identical values can stand only once. Toxic doses and inconclusive results are not listed. Rule for the calls: active = survival T/C of 150% or more; inactive = T/C below 125% in these data.

Tested on: P388 leukemia ip, CD2F1 mice, survival T/C
Experiment: NCI In Vivo Anticancer Drug Screen. Data for tumor model P388 Leukemia (intraperitoneal) in CD2F1 (CDF1) mice
Details: endpoint: median survival time, higher = longer survival
Method in brief: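 Mice carrying the transplanted tumor received test compound or vehicle. Survival was recorded in each group, and the value is the treated-group measurement divided by that of the vehicle-treated control group.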

[1] = dose: 100.0 mg/kg/injection, schedule: Q01DX001 (ip), vehicle: Klucel (hydroxypropylcellulose) (HPC)
[2] = dose: 200.0 mg/kg/injection, schedule: Q01DX001 (ip), vehicle: Klucel (hydroxypropylcellulose) (HPC)
[3] = dose: 400.0 mg/kg/injection, schedule: Q01DX001 (ip), vehicle: Klucel (hydroxypropylcellulose) (HPC)
[4] = dose: 50.0 mg/kg/injection, schedule: Q01DX009 (ip), vehicle: saline with Tween-80
[5] = dose: 100.0 mg/kg/injection, schedule: Q01DX009 (ip), vehicle: saline with Tween-80
[6] = dose: 200.0 mg/kg/injection, schedule: Q01DX009 (ip), vehicle: saline with Tween-80
[7] = dose: 50.0 mg/kg/injection, schedule: Q04DX003 (ip), vehicle: saline with Tween-80
[8] = dose: 100.0 mg/kg/injection, schedule: Q04DX003 (ip), vehicle: saline with Tween-80
[9] = dose: 50.0 mg/kg/injection, schedule: Q01DX005 (ip), vehicle: saline with Tween-80
[10] = dose: 100.0 mg/kg/injection, schedule: Q01DX005 (ip), vehicle: saline with Tween-80
[11] = dose: 200.0 mg/kg/injection, schedule: Q01DX005 (ip), vehicle: saline with Tween-80
[12] = dose: 25.0 mg/kg/injection, schedule: Q01DX005 (ip), vehicle: Klucel (hydroxypropylcellulose) (HPC)
[13] = dose: 50.0 mg/kg/injection, schedule: Q01DX005 (ip), vehicle: Klucel (hydroxypropylcellulose) (HPC)
[14] = dose: 100.0 mg/kg/injection, schedule: Q01DX005 (ip), vehicle: Klucel (hydroxypropylcellulose) (HPC)
[15] = dose: 200.0 mg/kg/injection, schedule: Q01DX005 (ip), vehicle: Klucel (hydroxypropylcellulose) (HPC)

Measured: T/C

OC1CC2(CC3(C1)SCCS3)SCCS2 (centres undefined)
inactive: [1] 102 % of control | [2] 99 % of control | [3] 106 % of control

COC(=O)Nc1nc2ccccc2[nH]1
inactive: dose: 20.0 mg/kg/injection, schedule: Q04DX003 (ip), vehicle: other 101 % of control | dose: 20.0 mg/kg/injection, schedule: Q04DX003 (oral), vehicle: other 100 % of control | dose: 40.0 mg/kg/injection, schedule: Q04DX003 (ip), vehicle: other 100 % of control | dose: 40.0 mg/kg/injection, schedule: Q04DX003 (oral), vehicle: other 101 % of control | dose: 80.0 mg/kg/injection, schedule: Q04DX003 (ip), vehicle: other 101 % of control | dose: 80.0 mg/kg/injection, schedule: Q04DX003 (oral), vehicle: other 101 % of control | dose: 160.0 mg/kg/injection, schedule: Q04DX003 (ip), vehicle: other 107 % of control | dose: 160.0 mg/kg/injection, schedule: Q04DX003 (oral), vehicle: other 105 % of control | dose: 320.0 mg/kg/injection, schedule: Q04DX003 (ip), vehicle: other 102 % of control | dose: 320.0 mg/kg/injection, schedule: Q04DX003 (oral), vehicle: other 100 % of control | dose: 640.0 mg/kg/injection, schedule: Q04DX003 (ip), vehicle: other 111 % of control | dose: 640.0 mg/kg/injection, schedule: Q04DX003 (oral), vehicle: other 102 % of control

CCOC(=O)c1ccc(NC(CCl)=NC(C)(C)C)cc1
inactive: [4] 86 % of control | [5] 100 % of control | [6] 90 % of control

CC(=O)SCCCCl
inactive: [7] 100 % of control | [8] 109 % of control | dose: 200.0 mg/kg/injection, schedule: Q04DX003 (ip), vehicle: saline with Tween-80 109 % of control

CC(C)CC(NC(=O)CNC(=O)/C=C/c1ccco1)C(N)=O (centres undefined)
inactive: [9] 106 % of control | [10] 102 % of control | [11] 90 % of control

COC(=O)[C@@H]1O[C@H]1c1ccccn1
inactive: [12] 96 % of control | [13] 97 % of control | [14] 100 % of control | [15] 97 % of control

O=C(Cc1cccc2c(=O)cc(-c3ccccc3)oc12)OCCO
inactive: [12] 100 % of control | [13] 103 % of control and 91 % of control | [14] 100 % of control and 110 % of control | [15] 120 % of control

CCCCOCN(COCCCC)c1ccccn1
inactive: dose: 25.0 mg/kg/injection, schedule: Q01DX009 (ip), vehicle: saline with Tween-80 103 % of control | [4] 100 % of control | dose: 50.0 mg/kg/injection, schedule: Q01DX009 (ip), vehicle: saline 111 % of control | [5] 116 % of control | dose: 100.0 mg/kg/injection, schedule: Q01DX009 (ip), vehicle: saline 122 % of control | [6] 116 % of control | dose: 200.0 mg/kg/injection, schedule: Q01DX009 (ip), vehicle: saline 117 % of control

CCOC(=O)Cn1nc(-c2ccccc2)c(-c2ccccc2)c(C#N)c1=O
inactive: dose: 25.0 mg/kg/injection, schedule: Q04DX002 (ip), vehicle: distilled water + Tween-80 95 % of control | dose: 50.0 mg/kg/injection, schedule: Q04DX002 (ip), vehicle: distilled water + Tween-80 107 % of control | dose: 100.0 mg/kg/injection, schedule: Q04DX002 (ip), vehicle: distilled water + Tween-80 98 % of control | dose: 200.0 mg/kg/injection, schedule: Q04DX002 (ip), vehicle: distilled water + Tween-80 92 % of control

CC(=O)Oc1ccccc1
inactive: [7] 103 % of control | [8] 100 % of control

CC(C)OC(CCC#N)c1ccc(Cl)cc1 (centres undefined)
inactive: dose: 50.0 mg/kg/injection, schedule: Q04DX003 (ip), vehicle: other 105 % of control | dose: 100.0 mg/kg/injection, schedule: Q04DX003 (ip), vehicle: other 114 % of control | dose: 200.0 mg/kg/injection, schedule: Q04DX003 (ip), vehicle: other 99 % of control

COc1ccc(C2CC(CO)ON2c2ccccc2)cc1 (centres undefined)
inactive: dose: 60.0 mg/kg/injection, schedule: Q01DX005 (ip), vehicle: saline with Tween-80 98 % of control | dose: 120.0 mg/kg/injection, schedule: Q01DX005 (ip), vehicle: saline with Tween-80 98 % of control | dose: 240.0 mg/kg/injection, schedule: Q01DX005 (ip), vehicle: saline with Tween-80 99 % of control

CCOc1cc2c(OCc3ccccc3)cc3c4cc(OC)c(OC)cc4c[n+](C)c3c2cc1OC
inactive: dose: 3.12 mg/kg/injection, schedule: Q01DX005 (ip), vehicle: saline with Tween-80 118 % of control | dose: 6.25 mg/kg/injection, schedule: Q01DX005 (ip), vehicle: saline with Tween-80 112 % of control | dose: 12.5 mg/kg/injection, schedule: Q01DX005 (ip), vehicle: saline with Tween-80 91 % of control

CN(N=O)C(=O)NNC(=O)N(C)N=O
inactive: dose: 15.0 mg/kg/injection, schedule: Q04DX003 (ip), vehicle: saline with Tween-80 105 % of control | dose: 30.0 mg/kg/injection, schedule: Q01DX009 (ip), vehicle: saline with Tween-80 100 % of control | dose: 30.0 mg/kg/injection, schedule: Q04DX003 (ip), vehicle: saline with Tween-80 110 % of control | dose: 39.6 mg/kg/injection, schedule: Q04DX003 (ip), vehicle: saline with Tween-80 109 % of control | dose: 60.0 mg/kg/injection, schedule: Q04DX003 (ip), vehicle: saline with Tween-80 113 % of control

COc1ccc(C=NCCC[Si]23OCCN(CCO2)CCO3)c(OC)c1OC
inactive: [13] 98 % of control | [14] 94 % of control | [15] 103 % of control

CCOC(=O)c1cc(-c2cc(-c3ccccn3)nnc2-c2ccccn2)c(=O)n(C)c1C
inactive: dose: 100.0 mg/kg/injection, schedule: Q04DX002 (ip), vehicle: saline with Tween-80 102 % of control | dose: 200.0 mg/kg/injection, schedule: Q04DX002 (ip), vehicle: saline with Tween-80 97 % of control | dose: 400.0 mg/kg/injection, schedule: Q04DX002 (ip), vehicle: saline with Tween-80 98 % of control

Cn1nc(-c2ccccc2)c([N+](=O)[O-])c1NCc1ccccc1
inactive: [13] 97 % of control | [14] 100 % of control | [15] 97 % of control

CCN1CCC[C@]2(C)[C@H]3CC[C@@]4(C)[C@@H](CC[C@]4(C)O)[C@@H]3CC[C@@H]12
inactive: dose: 12.5 mg/kg/injection, schedule: Q01DX005 (ip), vehicle: Klucel (hydroxypropylcellulose) (HPC) 101 % of control | [12] 97 % of control | [13] 93 % of control and 95 % of control

CN([NH-])C(=S)[S-].CN([NH-])C(=S)[S-].[Pt+4]
inactive: dose: 25.0 mg/kg/injection, schedule: Q04DX003 (ip), vehicle: Klucel (hydroxypropylcellulose) (HPC) 107 % of control | dose: 50.0 mg/kg/injection, schedule: Q04DX003 (ip), vehicle: Klucel (hydroxypropylcellulose) (HPC) 100 % of control | dose: 100.0 mg/kg/injection, schedule: Q04DX003 (ip), vehicle: Klucel (hydroxypropylcellulose) (HPC) 90 % of control

CC1(C)c2ccccc2-c2nc3ccccc3cc2C1N1CCOCC1 (centres undefined)
inactive: [9] 92 % of control | [10] 104 % of control | [11] 101 % of control

CCOc1ccc(/C=C2\CCc3ccccc3C2=O)cc1
inactive: dose: 50.0 mg/kg/injection, schedule: Q01DX009 (ip), vehicle: Klucel (hydroxypropylcellulose) (HPC) 98 % of control | dose: 100.0 mg/kg/injection, schedule: Q01DX009 (ip), vehicle: Klucel (hydroxypropylcellulose) (HPC) 102 % of control | dose: 200.0 mg/kg/injection, schedule: Q01DX009 (ip), vehicle: Klucel (hydroxypropylcellulose) (HPC) 99 % of control

COc1ccc(-c2nc3[nH]c(=S)[nH]c(=O)c3nc2-c2ccc(OC)c(OC)c2)cc1OC
inactive: [1] 103 % of control | [2] 105 % of control | [3] 90 % of control

CN=C(N)N/N=C(\C)c1ccc2ccccc2c1
inactive: dose: 12.5 mg/kg/injection, schedule: Q04DX002 (ip), vehicle: saline 103 % of control | dose: 25.0 mg/kg/injection, schedule: Q04DX002 (ip), vehicle: saline 101 % of control | dose: 50.0 mg/kg/injection, schedule: Q04DX002 (ip), vehicle: saline 112 % of control

Cc1cc(=O)c2c(ccc3ccccc32)[nH]1
inactive: [5] 106 % of control | [6] 109 % of control | dose: 400.0 mg/kg/injection, schedule: Q01DX009 (ip), vehicle: saline with Tween-80 104 % of control
